pIC50: −log10 of the molar value. Values joined by “and” are separate entries in the source; they are usually repeats but may differ in a detail not shown here. Equal values may be shown once. Read-outs that look alike come from different tables or passages of the source.
Experiments:
[1] = target: IRAK1 (Homo sapiens, UniProt P51617); assay: SelectScreen kinase assay
Procedure: (§1) Selectivity profiling assays were performed by the Invitrogen SelectScreen™ Services. […] The concentration of ATP was selected to be equal to the KM, unless indicated otherwise.

[2] = target: CDK3/cyclin E1 (Homo sapiens, UniProt Q00526); assay: SelectScreen kinase assay; settings: for Inhibition at 1 µM (%): CDK3/cyclin E1, LanthaScreen Binding
Procedure: as §1

[3] = target: CAMK1D (CaMKI delta) (Homo sapiens, UniProt Q8IU85); assay: SelectScreen kinase assay
Sequence of CAMK1D (CaMKI delta) (Q8IU85 whole entry): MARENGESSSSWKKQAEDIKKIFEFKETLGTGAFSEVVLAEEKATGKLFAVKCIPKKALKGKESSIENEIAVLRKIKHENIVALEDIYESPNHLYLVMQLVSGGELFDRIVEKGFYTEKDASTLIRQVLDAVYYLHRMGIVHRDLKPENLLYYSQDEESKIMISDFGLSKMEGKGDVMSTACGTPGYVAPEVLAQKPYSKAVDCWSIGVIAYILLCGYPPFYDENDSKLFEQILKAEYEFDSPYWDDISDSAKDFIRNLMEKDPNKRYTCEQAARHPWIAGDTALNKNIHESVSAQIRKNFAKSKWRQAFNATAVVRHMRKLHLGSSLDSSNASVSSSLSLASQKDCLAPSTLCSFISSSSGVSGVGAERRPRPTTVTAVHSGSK
Procedure: as §1

[4] = target: WEE1 (Homo sapiens, UniProt P30291); assay: SelectScreen kinase assay
Procedure: as §1

[5] = target: PIK3C2B (PI3K-C2 beta) (Homo sapiens, UniProt O00750); assay: SelectScreen kinase assay
Procedure: as §1

[6] = target: PAK2 (PAK65) (Homo sapiens, UniProt Q13177); assay: SelectScreen kinase assay
Sequence of PAK2 (PAK65) (Q13177 whole entry): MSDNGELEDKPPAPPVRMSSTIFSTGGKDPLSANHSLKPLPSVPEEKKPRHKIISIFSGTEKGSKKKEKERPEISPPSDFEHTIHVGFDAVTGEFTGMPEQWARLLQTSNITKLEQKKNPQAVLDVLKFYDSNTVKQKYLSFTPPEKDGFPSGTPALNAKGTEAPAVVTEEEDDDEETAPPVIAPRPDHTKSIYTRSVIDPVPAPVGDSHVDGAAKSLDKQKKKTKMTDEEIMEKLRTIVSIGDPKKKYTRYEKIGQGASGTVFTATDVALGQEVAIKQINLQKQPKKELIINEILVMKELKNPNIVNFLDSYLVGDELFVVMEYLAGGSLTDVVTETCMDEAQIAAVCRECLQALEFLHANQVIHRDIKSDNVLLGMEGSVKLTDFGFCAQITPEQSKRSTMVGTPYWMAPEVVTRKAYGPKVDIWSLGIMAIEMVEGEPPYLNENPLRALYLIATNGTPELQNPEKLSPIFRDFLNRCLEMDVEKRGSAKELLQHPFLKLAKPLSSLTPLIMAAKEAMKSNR
Procedure: as §1

[7] = target: PAK6 (Homo sapiens, UniProt Q9NQU5); assay: SelectScreen kinase assay; settings: 1 h, 1 μM WEL028, 1 h preincubation
Procedure: as §1

[8] = target: CLK1 (Homo sapiens, UniProt P49759); assay: SelectScreen kinase assay
Procedure: as §1

[9] = target: STK23 (MSSK1) (Homo sapiens, UniProt Q9UPE1); assay: SelectScreen kinase assay; settings: for Inhibition at 1 µM (%): ZLYTE, ATP Km app
Procedure: as §1

[10] = target: RPS6KB1 (p70S6K) (Homo sapiens, UniProt P23443); assay: SelectScreen kinase assay
Procedure: as §1

[11] = target: PI4KA (PI4K alpha) (Homo sapiens, UniProt P42356); assay: SelectScreen kinase assay
Sequence of PI4KA (PI4K alpha) (P42356 whole entry): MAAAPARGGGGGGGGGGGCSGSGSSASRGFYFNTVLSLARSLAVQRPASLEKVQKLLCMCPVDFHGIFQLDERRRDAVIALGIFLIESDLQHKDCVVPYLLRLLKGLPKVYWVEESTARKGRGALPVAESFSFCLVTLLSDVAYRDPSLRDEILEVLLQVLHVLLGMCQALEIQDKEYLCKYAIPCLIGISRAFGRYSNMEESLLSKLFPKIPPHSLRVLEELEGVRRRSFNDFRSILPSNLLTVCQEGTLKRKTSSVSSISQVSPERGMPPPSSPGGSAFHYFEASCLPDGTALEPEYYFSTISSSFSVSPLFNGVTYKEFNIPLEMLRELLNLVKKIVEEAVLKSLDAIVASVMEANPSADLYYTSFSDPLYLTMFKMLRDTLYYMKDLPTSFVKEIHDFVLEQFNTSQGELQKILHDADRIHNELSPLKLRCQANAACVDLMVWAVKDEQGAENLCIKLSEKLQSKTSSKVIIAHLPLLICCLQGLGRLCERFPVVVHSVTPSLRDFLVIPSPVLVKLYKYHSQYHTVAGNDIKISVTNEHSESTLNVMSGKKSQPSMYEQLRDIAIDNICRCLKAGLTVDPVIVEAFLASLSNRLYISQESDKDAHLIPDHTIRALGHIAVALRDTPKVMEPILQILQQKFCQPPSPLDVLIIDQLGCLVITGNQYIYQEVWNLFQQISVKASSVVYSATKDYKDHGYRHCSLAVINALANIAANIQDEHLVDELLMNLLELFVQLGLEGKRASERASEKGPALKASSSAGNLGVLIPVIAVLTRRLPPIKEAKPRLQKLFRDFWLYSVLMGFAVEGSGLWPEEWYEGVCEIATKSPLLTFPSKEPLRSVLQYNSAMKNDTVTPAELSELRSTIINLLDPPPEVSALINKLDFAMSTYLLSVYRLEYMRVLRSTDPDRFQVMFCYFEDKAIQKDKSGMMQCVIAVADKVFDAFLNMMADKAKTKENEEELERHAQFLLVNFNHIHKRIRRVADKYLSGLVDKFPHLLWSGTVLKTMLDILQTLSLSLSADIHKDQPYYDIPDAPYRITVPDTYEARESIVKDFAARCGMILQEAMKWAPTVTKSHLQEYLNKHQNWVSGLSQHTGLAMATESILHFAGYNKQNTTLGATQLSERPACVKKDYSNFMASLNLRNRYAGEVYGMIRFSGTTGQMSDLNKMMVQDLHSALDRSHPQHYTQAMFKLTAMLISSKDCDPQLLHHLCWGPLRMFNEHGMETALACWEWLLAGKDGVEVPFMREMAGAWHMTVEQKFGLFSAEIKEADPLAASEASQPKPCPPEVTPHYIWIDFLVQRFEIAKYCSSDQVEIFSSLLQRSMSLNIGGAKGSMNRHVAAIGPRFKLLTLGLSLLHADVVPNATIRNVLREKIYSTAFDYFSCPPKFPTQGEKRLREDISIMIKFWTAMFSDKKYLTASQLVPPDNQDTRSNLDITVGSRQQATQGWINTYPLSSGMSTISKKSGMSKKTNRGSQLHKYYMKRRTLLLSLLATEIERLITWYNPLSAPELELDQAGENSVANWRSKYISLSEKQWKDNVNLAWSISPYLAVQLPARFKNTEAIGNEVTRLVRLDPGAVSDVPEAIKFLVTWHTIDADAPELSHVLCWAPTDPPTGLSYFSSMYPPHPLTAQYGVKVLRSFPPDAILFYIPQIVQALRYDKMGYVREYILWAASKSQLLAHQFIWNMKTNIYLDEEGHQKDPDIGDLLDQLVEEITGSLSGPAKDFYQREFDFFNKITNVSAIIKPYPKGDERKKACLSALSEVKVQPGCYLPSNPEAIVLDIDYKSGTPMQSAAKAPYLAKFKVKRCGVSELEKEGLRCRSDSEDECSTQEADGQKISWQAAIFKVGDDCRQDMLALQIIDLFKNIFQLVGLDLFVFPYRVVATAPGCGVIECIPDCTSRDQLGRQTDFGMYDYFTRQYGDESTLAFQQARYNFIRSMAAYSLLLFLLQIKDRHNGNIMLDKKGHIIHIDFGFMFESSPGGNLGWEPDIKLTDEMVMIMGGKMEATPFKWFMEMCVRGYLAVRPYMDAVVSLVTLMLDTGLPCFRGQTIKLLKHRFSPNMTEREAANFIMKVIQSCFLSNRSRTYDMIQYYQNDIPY
Procedure: as §1

[12] = target: FGFR4 (Homo sapiens, UniProt P22455); assay: SelectScreen kinase assay
Procedure: as §1

[13] = target: ACVR2A (Homo sapiens, UniProt P27037); assay: SelectScreen kinase assay
Sequence of ACVR2A (P27037 20-513): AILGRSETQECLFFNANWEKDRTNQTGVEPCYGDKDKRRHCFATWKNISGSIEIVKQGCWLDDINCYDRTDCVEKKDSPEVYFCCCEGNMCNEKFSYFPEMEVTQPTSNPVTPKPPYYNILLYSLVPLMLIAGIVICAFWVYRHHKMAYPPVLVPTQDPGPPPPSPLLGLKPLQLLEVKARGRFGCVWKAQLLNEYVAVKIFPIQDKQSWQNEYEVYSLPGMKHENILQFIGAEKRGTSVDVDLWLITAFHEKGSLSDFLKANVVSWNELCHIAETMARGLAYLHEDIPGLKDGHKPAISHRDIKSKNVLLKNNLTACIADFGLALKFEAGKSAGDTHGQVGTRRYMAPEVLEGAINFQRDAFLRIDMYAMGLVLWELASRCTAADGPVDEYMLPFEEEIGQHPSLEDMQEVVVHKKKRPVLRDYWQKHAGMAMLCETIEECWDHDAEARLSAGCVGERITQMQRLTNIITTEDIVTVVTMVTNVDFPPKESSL
Procedure: as §1

[14] = test system: FLT3; assay: SelectScreen kinase assay; settings: IC50 on that kinase divided by IC50 on FES^S700C
Procedure: as §1

[15] = target: FLT3 (Homo sapiens, UniProt P36888); assay: SelectScreen kinase assay
Procedure: as §1

[16] = target: endogenous FES^S700C (Homo sapiens, UniProt P07332, S700C); assay: In situ target engagement in live HL-60 macrophages (WEL033 post-labeling); assay type: cell-based; design: endogenous in cells; host or cells: HL-60 FES^S700C clone, differentiated to macrophages or neutrophils; settings: for Relative FES labeling (%) Mean: Supplementary Figure 13b
Sequence of endogenous FES^S700C (P07332 whole entry S700C): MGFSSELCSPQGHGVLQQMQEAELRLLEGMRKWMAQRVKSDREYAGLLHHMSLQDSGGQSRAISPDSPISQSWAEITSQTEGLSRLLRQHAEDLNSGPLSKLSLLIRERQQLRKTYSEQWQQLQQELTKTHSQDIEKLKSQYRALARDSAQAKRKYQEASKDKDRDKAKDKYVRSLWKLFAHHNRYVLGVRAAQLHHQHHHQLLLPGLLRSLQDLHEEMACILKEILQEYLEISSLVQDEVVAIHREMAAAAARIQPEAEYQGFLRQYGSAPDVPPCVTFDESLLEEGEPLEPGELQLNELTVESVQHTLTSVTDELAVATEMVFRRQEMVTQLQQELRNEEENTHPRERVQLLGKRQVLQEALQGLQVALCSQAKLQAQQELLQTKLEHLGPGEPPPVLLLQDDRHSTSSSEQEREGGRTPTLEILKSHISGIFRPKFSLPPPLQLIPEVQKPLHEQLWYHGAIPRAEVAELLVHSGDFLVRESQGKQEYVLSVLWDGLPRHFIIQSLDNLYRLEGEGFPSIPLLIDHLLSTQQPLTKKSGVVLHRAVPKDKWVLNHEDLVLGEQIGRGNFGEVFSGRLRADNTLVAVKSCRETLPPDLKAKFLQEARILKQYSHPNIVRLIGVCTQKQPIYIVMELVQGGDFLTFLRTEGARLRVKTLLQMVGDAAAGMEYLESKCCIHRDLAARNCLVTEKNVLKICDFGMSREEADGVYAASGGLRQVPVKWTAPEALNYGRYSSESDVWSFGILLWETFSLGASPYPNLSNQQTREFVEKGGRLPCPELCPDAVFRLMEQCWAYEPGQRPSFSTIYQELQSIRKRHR
Source text: and harvested. […] Band intensities were
Values represent means of fold enrichment (n

[17] = target: T1, NUAK1 (ARK5) (Homo sapiens, UniProt O60285); assay: SelectScreen kinase assay
T1 sequence (O60285 1-661): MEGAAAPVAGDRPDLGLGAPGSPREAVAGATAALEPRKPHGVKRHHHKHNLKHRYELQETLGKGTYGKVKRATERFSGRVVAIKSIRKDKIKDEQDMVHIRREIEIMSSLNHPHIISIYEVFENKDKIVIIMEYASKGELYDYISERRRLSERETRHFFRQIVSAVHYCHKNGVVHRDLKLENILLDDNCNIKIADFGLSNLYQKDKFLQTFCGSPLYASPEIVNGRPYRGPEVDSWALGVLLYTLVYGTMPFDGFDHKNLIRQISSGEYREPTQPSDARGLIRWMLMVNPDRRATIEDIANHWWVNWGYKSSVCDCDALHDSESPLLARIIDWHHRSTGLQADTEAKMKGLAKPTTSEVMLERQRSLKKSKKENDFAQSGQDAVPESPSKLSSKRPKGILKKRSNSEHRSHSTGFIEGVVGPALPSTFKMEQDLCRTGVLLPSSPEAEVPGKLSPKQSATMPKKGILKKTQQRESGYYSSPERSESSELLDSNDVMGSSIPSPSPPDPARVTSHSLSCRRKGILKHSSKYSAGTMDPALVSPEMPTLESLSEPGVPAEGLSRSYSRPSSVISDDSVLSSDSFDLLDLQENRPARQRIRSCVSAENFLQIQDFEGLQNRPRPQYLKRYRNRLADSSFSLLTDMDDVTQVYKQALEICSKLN
Procedure: as §1

[18] = 1 h, 1 μM WEL028, 1 h preincubation

Sequence of IRAK1 (P51617 whole entry): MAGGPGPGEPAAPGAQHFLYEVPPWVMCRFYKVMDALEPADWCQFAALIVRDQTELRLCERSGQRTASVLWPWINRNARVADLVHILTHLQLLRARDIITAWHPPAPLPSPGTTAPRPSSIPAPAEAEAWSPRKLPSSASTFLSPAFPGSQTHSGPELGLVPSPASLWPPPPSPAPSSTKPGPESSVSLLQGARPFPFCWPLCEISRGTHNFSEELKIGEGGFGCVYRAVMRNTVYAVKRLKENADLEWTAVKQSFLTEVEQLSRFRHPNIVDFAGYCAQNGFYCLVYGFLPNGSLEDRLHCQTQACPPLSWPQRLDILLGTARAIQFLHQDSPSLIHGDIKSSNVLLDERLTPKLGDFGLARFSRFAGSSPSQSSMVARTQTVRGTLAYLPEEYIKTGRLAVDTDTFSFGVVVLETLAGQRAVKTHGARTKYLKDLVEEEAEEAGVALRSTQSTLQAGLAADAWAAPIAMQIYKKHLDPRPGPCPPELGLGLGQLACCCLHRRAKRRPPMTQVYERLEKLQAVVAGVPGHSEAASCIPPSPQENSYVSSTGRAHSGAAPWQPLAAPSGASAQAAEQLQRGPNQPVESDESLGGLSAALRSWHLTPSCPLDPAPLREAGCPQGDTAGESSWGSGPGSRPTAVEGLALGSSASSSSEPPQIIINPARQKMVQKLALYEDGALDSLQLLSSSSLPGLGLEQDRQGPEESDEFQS

## C#CCOc1ccc(Nc2ncc(Cl)c(Nc3ccccc3NC(=O)C=C)n2)c(OC)c1 [Compound 6]
[1]; [18]
  inhibition at 1 µM: 26%
[1]; IRAK1, 1 µM, Adapta, ATP Km app, listed as WEL028, 1 µM
  Inhibition at 1 µM (%): 31%
[1]; read-out: Inhibition at 1 µM (%), IRAK1, 1 µM, Adapta, ATP Km app
  inhibition at 1 µM: 20%
[2]; 1 μM WEL028, 1 h preincubation
  Inhibition (%): 1%
[2]
  Inhibition at 1 µM (%): -3%
[2]; listed as WEL028, 1 µM
  Inhibition at 1 µM (%): 5%
[3]; [18]
  inhibition at 1 µM: 6%
[3]; read-out: Inhibition at 1 µM (%), CAMK1D (CaMKI delta), 1 µM, ZLYTE, ATP Km app
  inhibition at 1 µM: 5%
[4]; 1 µM, LanthaScreen Binding
  Inhibition at 1 µM (%): -14%
[4]; [18]
  inhibition at 1 µM: -5%
[5]; 1 h
  inhibition at 1 µM: -1%
[5]; read-out: Inhibition at 1 µM (%)
  inhibition at 1 µM: -1%
[6]; [18]
  inhibition at 1 µM: 29%
[6]; PAK2 (PAK65), 1 µM, ZLYTE, ATP Km app, listed as WEL028, 1 µM
  Inhibition at 1 µM (%): 23%
[6]; read-out: Inhibition at 1 µM (%), PAK2 (PAK65), 1 µM, ZLYTE, ATP Km app
  inhibition at 1 µM: 35%
[7]
  inhibition at 1 µM: -7%
[8]; [18]
  inhibition at 1 µM: 5%
[8]; CLK1, 1 µM, ZLYTE, ATP Km app, listed as WEL028, 1 µM
  Inhibition at 1 µM (%): 1% and 8%
[9]
  Inhibition at 1 µM (%): 2%
[9]; listed as WEL028, 1 µM
  Inhibition at 1 µM (%): -4%
[9]; [18]
  inhibition at 1 µM: -1%
[10]; 1 µM, ZLYTE, ATP Km app
  Inhibition at 1 µM (%): 15%
[10]; [18]
  inhibition at 1 µM: 4%
[11]; [18]
  inhibition at 1 µM: 7%
[11]; PI4KA (PI4K alpha), 1 µM, Adapta, ATP 10, listed as WEL028, 1 µM
  Inhibition at 1 µM (%): 3% and 11%
[12]; [18]
  inhibition at 1 µM: 34%
[12]; FGFR4, 1 µM, ZLYTE, ATP Km app, listed as WEL028, 1 µM
  Inhibition at 1 µM (%): 38%
[12]; read-out: Inhibition at 1 µM (%), FGFR4, 1 µM, ZLYTE, ATP Km app
  inhibition at 1 µM: 31%
[13]; [18]
  inhibition at 1 µM: 5%
[13]; ACVR2A, 1 µM, LanthaScreen Binding, listed as WEL028, 1 µM
  Inhibition at 1 µM (%): 6%
[13]; read-out: Inhibition at 1 µM (%), ACVR2A, 1 µM, LanthaScreen Binding
  inhibition at 1 µM: 4%
[14]
  Apparent fold selectivity: 718 fold
[15]
  pIC50: 5.50
[15]; [18]
  inhibition at 1 µM: 61%
[15]; FLT3, 1 µM, ZLYTE, ATP Km app, listed as WEL028, 1 µM
  Inhibition at 1 µM (%): 58%
[15]; read-out: Inhibition at 1 µM (%), FLT3, 1 µM, ZLYTE, ATP Km app
  inhibition at 1 µM: 64%
[16]; live FES^S700C HL-60 macrophages, 1 h, WEL033 1 µM post-labeling, n = 3, read-out: pIC50, relative FES labeling (converted)
  IC50: 3.98 nM
[16]; log[WEL028] (M) -6
  Relative FES labeling (%) Mean: 6.696%
[16]; log[WEL028] (M) -7
  Relative FES labeling (%) Mean: 2.482%
[16]; log[WEL028] (M) -7.52288
  Relative FES labeling (%) Mean: 5.093%
[16]; log[WEL028] (M) -8
  Relative FES labeling (%) Mean: 18.898%
[16]; log[WEL028] (M) -8.52288
  Relative FES labeling (%) Mean: 58.4122%
[16]; log[WEL028] (M) -9
  Relative FES labeling (%) Mean: 92.5647%
[17]; 1 μM WEL028, 1 h preincubation
  Inhibition (%): 35%
[17]; NUAK1 (ARK5), 1 µM, Adapta, ATP Km app, listed as WEL028, 1 µM
  Inhibition at 1 µM (%): 41%
[17]; read-out: Inhibition at 1 µM (%), NUAK1 (ARK5), 1 µM, Adapta, ATP Km app
  inhibition at 1 µM: 30%

— publication PMC7316778 (Nature Communications, 2020)
